Converted amounts (≈) assume the structure as drawn. “And” between values parts separate entries of the source, which are not always exact repeats. Equal values may be shown once. Read-outs that look alike come from different tables or passages of the source.
Columns and labels:
Colo-205 (Colon cancer) = test: MTT assay, Colo-205; format: cell-based; conditions: for IC50: Homo sapiens, read-out: Colo-205 IC50
Description: (§1) A431 (Skin cancer), Colo-205 (Colon cancer), A549 (Lung cancer) cell lines were obtained from National Center for Cell science (NCCS), Pune, India. DMEM (Dulbeccos Modified Eagles Medium), MTT [3-(4,5-dimethylthiazol-2-yl)-2,5-diphenyl tetrazolium bromide], Trypsin, EDTA were purchased from Sigma Chemicals Co (St. Louis, Mo.), Fetal bovine serum were purchased from Arrow labs, 96 well flat bottom tissue culture plates were purchased from Tarson.
(§2) A431, Colo-205, A549 cell lines were grown as adherent cells in DMEM media supplemented with 10% fetal bovine serum, 100 μg/ml penicillin, 200 μg/ml streptomycin, 2 mM L-glutamine, and culture was maintained in a humidified atmosphere with 5% CO2. Stock solution of 10 mg/ml was prepared for test molecules in DMSO. From the stock, various dilutions were made with sterile water to get required concentration. A431, Colo-205, A549 cell lines were seeded at a density of 1×10^4 cells (cell number was determined by Trypan blue exclusion dye method) per each well in 100 μl of DMEM supplemented with 10% FBS. 12 hrs after seeding, above media was replaced with fresh DMEM supplemented with 10% FBS. Then, 10 μl sample from above stock solutions were added to each well in triplicates which gives final concentration of 100, 50, 25, 10 μg/well. The above cells were incubated for 48 hrs at 37° C. with 5% CO2. After 48 hrs incubation the above media was replaced with 100 μl of fresh DMEM with out FBS and to this 10 μl of MTT (5 mg dissolved in 1 ml of PBS) was added and incubated for 3 hrs at 37° C. with 5% CO2. After 3 hrs of incubation, the above media was removed with multi channel pipette, then 200 μl of DMSO was added to each well and incubated at 37° C. for 15 min. Finally, the plate was read at 570 nm using spectrophotometer (Spectra Max, Molecular devices).

A549 (Lung cancer) = test: MTT assay, A549; format: cell-based; conditions: Homo sapiens, read-out: A549 IC50
Description: as §1, §2

[1] = test system: crude intestinal α-glucosidase; test: In-vitro mammalian (rat intestinal) α-glucosidase inhibition assay; format: biochemical; conditions: for Mammalian α Glucosidase Inhibition (Mean ± S.E): highest concentration 5 mg/ml
Source text: Chemicals: α-Glucosidase [(EC 3.2.1.20) Type I: from bakers yeast], rat intestinal acetone powder (as a source of crude intestinal α-glucosidase), α-amylase [EC 3.2.1.1) Type VI B: from porcine pancreas], p-nitrophenyl α-D-glucopyranoside, 3,5-dinitro salicylic acid, soluble potato starch and 1-deoxyrojirimycine, were purchased from Sigma Chemical Co., St Louis, Mo., USA. Other chemicals of analytical grade were procured from indigenous manufacturers.
In-vitro a-Glucosidase Inhibition Assay: Yeast and intestinal a-glucosidase inhibitory activities were determined as per reported methods (Babu et al., 2004; Mc Dougall et al., 2005). Rat intestinal acetone powder in normal saline (100% w/v) was sonicated properly and the supernatant was used as a source of crude intestinal a-glucosidase after centrifugation. In brief, 20 μl, of test samples (100 mg/ml DMSO solution) were reconstituted in 100 μl of 100 mM-Phosphate buffer (pH 6.8) in a 96-well microplate and incubated with 50 μl yeast a-glucosidase (0.76 μ/ml in same buffer) or crude intestinal a-glucosidase for 5 min before 50-μl substrate (5 mM, […] prepared in same buffer) was added. Release of p-nitrophenyol was measured at 405 nm spectrophotometrically (Spectra Mas Plus 384, Molecular Device corporation, Sunnyvale, Calif., USA) 5 min after incubation with substrate, individual blank for test samples were prepared to correct background absorbance where the substrate was replaced with 50 μl of buffer. The control sample contained 20 μl DMSO in place of test samples. The percentage of enzyme inhibition was calculated as (A−B/A)×100 where A is represents the absorbance of the control without test samples, and B represents the absorbance in the presence of test samples. […] The IC50 values were calculated by applying logarithmic regression analysis from the mean inhibitory values.

Wistar rats = test: Carrageenan induced paw edema model; format: in vivo, rat; conditions: for change in vivo at 100 mg/kg / inhibition in vivo at 100 mg/kg: Rattus norvegicus; for change in vivo at 100 mg/kg: read-out: % Increase in Paw Volume; for inhibition in vivo at 100 mg/kg: read-out: % Inhibition (paw volume)
Description: Male Albino Wistar rats of 150-180 grams were used for the experiments.
Anti-inflammatory activity of test compounds was evaluated in Wistar rats employing the method of Winter et al (1963) and Diwan et al (1989). Male Wistar rats were used for the study. […] The different test compounds were administered to the animals in the test group at the dose of 100 mg/kg, by oral route. Animals in the standard group received Indomethacin at the dose of 10 mg/kg, by oral route. All test and standard compounds were administered as 1% gum acacia suspension. Rats in the control group received the vehicle solution without drugs. One hour after test drugs administration, rats in all the groups were challenged with 0.1 ml of 1% Carrageenan in the sub plantar region of right hind paw. A zero hour paw volume was measured for all the rats using digital plethysmometer (Ugo Basile, Italy) before the administration of carrageenan for all groups. Paw volumes were again measured 3 hrs after the challenge of Carrageenan. The percent inhibition of paw volume for each rat in treated groups was calculated by comparing with mean paw volume of control group and expressed as mean (±SE) percent inhibition of paw volume for each test. In a preliminary study the compounds that have shown good activity were evaluated for dose response study by using above procedure.

[2] = test system: A431 (Skin cancer) cell lines; test: MTT assay, A431; format: cell-based; conditions: Homo sapiens, read-out: A431 cell lines IC50
Description: as §1, §2

[3] = test compounds 100 mg/kg oral, Indomethacin 10 mg/kg oral, 3 hrs after Carrageenan
[4] = 50 mg/kg oral, dose response study, n=6
[5] = 100 mg/kg oral, dose response study, n=6
[6] = 200 mg/kg oral, dose response study, n=6

SMILES | IC50 (Colo-205 (Colon cancer); COLO 205, MTT, 48 hrs) [µg/mL] | IC50 (A549 (Lung cancer); A549, MTT, 48 hrs) [µg/mL] | Mammalian α Glucosidase Inhibition (Mean ± S.E) [1] [%] | change in vivo at 100 mg/kg (Wistar rats; [3]) [%] | inhibition in vivo at 100 mg/kg (Wistar rats; [3]) [%] | IC50 ([2]; A-431, MTT, 48 hrs) [µg/mL] | Mammalian α-glucosidase inhibitory activity (in words) [1] | further results
Cc1sc2nc3c(c(N)c2c1C)CCC3 [BN-1, 2,3-dimethyl-6,7-dihydro-5H-cyclopenta[b]thieno[3,2-e]pyridin-4-amine] | 245 (≈ 1120 µM) | 190 (≈ 870 µM) | 0.0 ± 0.0 | 87.9 ± 2.78 | 24.7 ± 5.49 | 45.7 (≈ 209 µM) | – | –
Cc1sc2nc3c(c(N)c2c1C)CCCC3 [BN-2, 2,3-dimethyl-5,6,7,8-tetrahydrothieno[2,3-b]quinolin-4-amine] | 117 (≈ 504 µM) | 50.1 (≈ 216 µM) | 40.0 ± 2.5 | 83.1 ± 2.66 | 20.6 ± 2.05 | 31.6 (≈ 136 µM) | moderate inhibitory activity | –
Cc1sc2nc3c(c(N)c2c1C)CCCCC3 [BN-4, 2,3-dimethyl-6,7,8,9-tetrahydro-5H-cyclohepta[b]thieno[3,2-e]pyridin-4-amine] | – | 36.3 (≈ 147 µM) | 38.37 ± 1.0 | 68.1 ± 3.41 | 41.8 ± 3.77 | 47.8 (≈ 194 µM) | moderate inhibitory activity | Colo-205 IC50 (Colo-205 (Colon cancer); MTT, 48 hrs): No activity; % Inhibition (Wistar rats; [4]): 23.93 ± 2.96%; Percentage Swelling (50 mg/kg) (Wistar rats; [4]): 73.27 ± 4.47 %; % Inhibition (Wistar rats; [5]): 35.68 ± 3.77%; Percentage Swelling (100 mg/kg) (Wistar rats; [5]): 64.42 ± 3.97 %; % Inhibition (Wistar rats; [6]): 53.2% and 53.2 ± 3.03%; Percentage Swelling (200 mg/kg) (Wistar rats; [6]): 44.23 ± 3.34 %
Nc1c2c(nc3sc4c(c13)CCCC4)CCC2 [BN-5, 2,3,6,7,8,9-Hexahydro-1H-benzo[4,5]thieno[2,3-b]cyclopenta[e]pyridin-10-amine] | – | 144 (≈ 591 µM) | 0.0 ± 0.0 | 101 ± 2.94 | 4.32 ± 1.19 | 141 (≈ 577 µM) | – | Colo-205 IC50 (Colo-205 (Colon cancer); MTT, 48 hrs): No activity
Nc1c2c(nc3sc4c(c13)CCCC4)CCCC2 [BN-6, 1,2,3,4,7,8,9,10-Octahydrobenzo[4,5]thieno[2,3-b]quinolin-11-amine] | 162 (≈ 627 µM) | 33.8 (≈ 131 µM) | 19.92 ± 1.27 | 109 ± 2.73 | 3.14 ± 1.96 | 36.3 (≈ 140 µM) | – | –
CC1CCc2c(nc3sc4c(c3c2N)CCCC4)C1 (stereo not drawn) [BN-7, 8-Methyl-1,2,3,4,7,8,9,10-octahydrobenzo[4,5]thieno[2,3-b]quinolin-11-amine] | 70.7 (≈ 260 µM) | 49 (≈ 180 µM) | 50.19 ± 0.93 | 113 ± 22.3 | 0.7 ± 0.7 | 36.3 (≈ 133 µM) | moderate inhibitory activity | –
Nc1c2c(nc3sc4c(c13)CCCC4)CCCCC2 [BN-8, 2,3,4,7,8,9,10,11-Octahydro-1H-benzo[4,5]thieno[2,3-b]cyclohepta [e]pyridin-12-amine] | – | – | 10.76 ± 0.92 | – | – | – | – | IC50 (Colo-205 (Colon cancer); COLO 205, 48 h): 70.8 µg/mL (≈ 260 µM); IC50 (A549 (Lung cancer); A549, 48 h): 186 µg/mL (≈ 683 µM); change in vivo at 100 mg/kg (Wistar rats; po, 3 h): 109 ± 4.87%; inhibition in vivo at 100 mg/kg (Wistar rats; po, 3 h): 1.2 ± 0.87%; IC50 ([2]; A-431, 48 h): 51.1 µg/mL (≈ 188 µM)
Nc1c2c(nc3sc4c(c13)CCC4)CCC2 [BN-13, 1,2,3,6,7,8-hexahydrocyclopenta [b]cyclopenta[4,5] thieno[3,2-e]pyridin-9-amine] | – | – | 76.13 | – | – | – | significant inhibitory activity | IC50 (Colo-205 (Colon cancer); COLO 205, 48 h): 144 µg/mL (≈ 625 µM); IC50 (A549 (Lung cancer); A549, 48 h): 83.2 µg/mL (≈ 361 µM); Mammalian α-glucosidase inhibition (Mean ± S.E) ([1]; 0.039063 mg/ml): 10.06 ± 1.36%; Mammalian α-glucosidase inhibition (Mean ± S.E) ([1]; 0.078125 mg/ml): 27.07 ± 1.93%; Mammalian α-glucosidase inhibition (Mean ± S.E) ([1]; 0.15625 mg/ml): 34.89 ± 2.28%; Mammalian α-glucosidase inhibition (Mean ± S.E) ([1]; 0.3125 mg/ml): 44.87 ± 1.62%; Mammalian α-glucosidase inhibition (Mean ± S.E) ([1]; 0.625 mg/ml): 52.97 ± 1.47%; Mammalian α-glucosidase inhibition (Mean ± S.E) ([1]; 1.25 mg/ml): 67.24 ± 1.08%; Mammalian α-glucosidase inhibition (Mean ± S.E) ([1]; 2.5 mg/ml): 71.39 ± 1.82%; Mammalian α-glucosidase inhibition (Mean ± S.E) ([1]; 5 mg/ml): 76.13 ± 0.03%; IC50 ([1]; mammalian α-glucosidase, dose response study): 509 µg/mL (≈ 2210 µM); change in vivo at 100 mg/kg (Wistar rats; po, 3 h): 91.7 ± 25.7%; inhibition in vivo at 100 mg/kg (Wistar rats; po, 3 h): 12.3 ± 1.95%; IC50 ([2]; A-431, 48 h): 50.1 µg/mL (≈ 218 µM)
COc1ccc2c(c1)c(CC(=O)O)c(C)n2C(=O)c1ccc(Cl)cc1 [Indomethacin, reference compound] | – | – | – | 41.7 ± 9.97 | 50.1 ± 12.1 | – | – | –
